We go through two compounds from patent US7022650B2, “4-trifluoromethylpyrazolyl-substituted pyridines and pyrimidines” (Bayer CropScience GmbH, priority 2002, dated 2006).

Series [1] relates to Zea mays (maize). The series can be described thus: Crop plant tolerance, pre-emergence. It is filed as in vivo. Particulars: 20 g of active substance per hectare, 3 to 4 weeks. The source says: (§1) 1. Weed plant herbicidal activity and crop plant tolerance, pre-emergence Seeds of monocot and dicot weed plants and of crop plants are placed in sandy loam soil in cardboard pots and are covered with soil. The compounds of the invention, formulated as wettable powders or emulsifiable concentrates, are then applied as an aqueous suspension or emulsion, respectively, in different dosages to the surface of the covering soil at an application rate of 600 to 800 l of water per ha (converted). Following treatment, the pots are placed in a greenhouse and kept under good growth conditions for the weeds. Visual scoring of the plant damage or emergence damage is made after the experimental plants have emerged, after an experimental period of 3 to 4 weeks, in comparison with untreated controls. […] At the same application rate this compound of the invention causes no damage to the crop plants Oryza sativa (rice) or Zea mays (maize).

Series [2] has as its system Oryza sativa (rice). The experiment in a line: Crop plant tolerance, pre-emergence. Particulars: 20 g of active substance per hectare, 3 to 4 weeks. It is filed as in vivo.
Source text: as §1

Series [3] relates to Oryza sativa (rice). The series can be described thus: Crop plant tolerance, post-emergence. In kind it is in vivo. The conditions noted are these: 80 g of active substance per hectare, 3 to 4 weeks. The protocol:
(§2) 2. Weed plant herbicidal activity and crop plant tolerance, post-emergence Seeds of monocot and dicot weed plants and of crop plants are placed in sandy loam in cardboard pots, covered with soil, and grown under good growth conditions in a greenhouse. Two to three weeks after sowing, the experimental plants are treated at the three-leaf stage. The compounds of the invention, formulated as wettable powders or as emulsifiable concentrates, are sprayed at different dosages onto the surface of the green parts of the plants at an application rate of 600 to 800 l of water per ha (converted). After the experimental plants have stood in the greenhouse for 3 to 4 weeks under optimum growth conditions, the activity of the compounds is scored. […] At the same application rate this compound of the invention causes no damage to the crop plant Oryza sativa (rice) and 20% damage to Triticum aestivum (wheat).

Series [4] concerns Triticum aestivum (wheat). The series can be described thus: Crop plant tolerance, post-emergence. In kind it is in vivo. The conditions noted are these: 80 g of active substance per hectare, 3 to 4 weeks. On the procedure:
as §2

The subject of series [5] is Agropyrons repens. The experiment in a line: Weed plant herbicidal activity, pre-emergence. In kind it is in vivo. Particulars: 20 g of active substance per hectare, visual scoring after 3 to 4 weeks.
Source text: as §1

The test system of series [6] is Setaria viridis. The series can be described thus: Weed plant herbicidal activity, pre-emergence. In kind it is in vivo. Particulars: 20 g of active substance per hectare, visual scoring after 3 to 4 weeks.
Source text: as §1

For series [7], the system named is Avena fatua. The series can be described thus: Weed plant herbicidal activity, pre-emergence. It is filed as in vivo. Particulars: 20 g of active substance per hectare, visual scoring after 3 to 4 weeks.
Source text: as §1

Series [8] has as its system Veronica persica. The series can be described thus: Weed plant herbicidal activity, pre-emergence. In kind it is in vivo. The conditions noted are these: 20 g of active substance per hectare, visual scoring after 3 to 4 weeks.
Source text: as §1

Series [9] relates to Lolium multiflorum. The series can be described thus: Weed plant herbicidal activity, pre-emergence. It is filed as in vivo. Particulars: 20 g of active substance per hectare, visual scoring after 3 to 4 weeks.
Source text: as §1

Series [10] has as its system Amaranthus retroflexus. The series can be described thus: Weed plant herbicidal activity, pre-emergence. In kind it is in vivo. The conditions noted are these: 20 g of active substance per hectare, visual scoring after 3 to 4 weeks.
Source text: as §1

The test system of series [11] is Alopecurus myosuroides. The experiment in a line: Weed plant herbicidal activity, pre-emergence. In kind it is in vivo. Particulars: 20 g of active substance per hectare, visual scoring after 3 to 4 weeks.
Source text: as §1

In series [12] the test system is Galium aparine. The series can be described thus: Weed plant herbicidal activity, pre-emergence. It is filed as in vivo. Particulars: 20 g of active substance per hectare, visual scoring after 3 to 4 weeks.
Source text: as §1

For series [13], the system named is Sorghum halepense. The series can be described thus: Weed plant herbicidal activity, pre-emergence. It is filed as in vivo. Particulars: 20 g of active substance per hectare, visual scoring after 3 to 4 weeks.
Source text: as §1

Series [14] has as its system Digitaria sanguinalis. The series can be described thus: Weed plant herbicidal activity, pre-emergence. It is filed as in vivo. The conditions noted are these: 20 g of active substance per hectare, visual scoring after 3 to 4 weeks.
Source text: as §1

The test system of series [15] is Pharbitis purpureum. The experiment in a line: Weed plant herbicidal activity, post-emergence. In kind it is in vivo. The conditions noted are these: three-leaf stage, 80 g of active substance per hectare, scored after 3 to 4 weeks. The protocol: as §2
Series [16] deals with Chenopodium album. The experiment in a line: Weed plant herbicidal activity, post-emergence. In kind it is in vivo. The conditions noted are these: three-leaf stage, 80 g of active substance per hectare, scored after 3 to 4 weeks. The protocol:
as §2

Series [17] has as its system Veronica persica. The series can be described thus: Weed plant herbicidal activity, post-emergence. In kind it is in vivo. The conditions noted are these: three-leaf stage, 80 g of active substance per hectare, scored after 3 to 4 weeks. The protocol: as §2
For series [18], the system named is Matricaria inodora. The experiment in a line: Weed plant herbicidal activity, post-emergence. The conditions noted are these: three-leaf stage, 80 g of active substance per hectare, scored after 3 to 4 weeks. In kind it is in vivo. The protocol:
as §2

The subject of series [19] is Digitaria sanguinalis. The experiment in a line: Weed plant herbicidal activity, post-emergence. In kind it is in vivo. Particulars: three-leaf stage, 80 g of active substance per hectare, scored after 3 to 4 weeks. On the procedure: as §2

Broadly, the melting point is the temperature of the solid-liquid transition.

On to `Cc1cnc(-n2cc(C(F)(F)F)cn2)nc1Oc1csc(C(F)(F)F)c1` [1.8, 5-methyl-2-(4-trifluoromethyl-1H-1-pyrazolyl)-4-(5-trifluoromethyl-3-thienyloxy)pyrimidine], for which the melting point was in the range of 94 to 96 °C.

As for `COc1cnc(-n2cc(C(F)(F)F)cn2)nc1Oc1csc(C(F)(F)F)c1` [Example No. 1.22, 5-methoxy-2-(4-trifluoromethyl-1H-1-pyrazolyl)-4-(5-trifluoromethyl-3-thienyloxy)pyrimidine], the melting point lay within 109 to 111 °C. In addition, the “damage to the crop plant Zea mays (maize)” value in series [1] was “no damage”. For the same compound, the “damage to the crop plant Oryza sativa (rice)” value in [2] was “no damage”. Also, the “damage to the crop plant Oryza sativa (rice)” value in series [3] is given as “no damage”. Besides, the “damage to Triticum aestivum (wheat)” value in series [4] is listed as 20%. In addition, the “activity against Agropyrons repens” value in series [5] is listed as “at least 80%”. Moreover, in series [6], the “activity against Setaria viridis” value is recorded as “at least 80%”. The “activity against Avena fatua” value in series [7] is on record as “at least 80%”. Moreover, the “activity against Veronica persica” value in series [8] is “at least 80%”. In addition, the “activity against Lolium multiflorum” value in series [9] was “at least 80%”. Besides, the “activity against Amaranthus retroflexus” value in [10] is listed as “at least 80%”. In addition, in series [11], the “activity against Alopecurus myosuroides” value is “at least 80%”. In addition, the “activity against Galium aparine” value in series [12] was “at least 80%”. Further, the “activity against Sorghum halepense” value in [13] is “at least 80%”. In addition, the “activity against Digitaria sanguinalis” value in series [14] is “at least 80%”. Further, in [15], the “activity against Pharbitis purpureum” value is on record as “at least 90%”. Moreover, the “activity against Chenopodium album” value in series [16] is reported as “at least 90%”. In addition, the “activity against Veronica persica” value in [17] is reported as “at least 90%”. Also, in series [18], the “activity against Matricaria inodora” value is listed as “at least 90%”. For the same compound, the “activity against Digitaria sanguinalis” value in [19] is listed as “at least 90%”.
